From patent publication US20080114005A1, “Fibrate Compounds Having Ppar Agonist Activity” (Dr. Reddy's Laboratories Limited, priority 2004, published 2008) come the findings set out here.

`CCCc1nn(CC)c2c(=O)n(CCOc3ccc(SC(C)(C)C(=O)OCC)cc3)c(C)nc12` [Example 51, 2-{4-[2-(1-Ethyl-5-methyl-7-oxo-3-propyl-1,7-dihydro-pyrazolo[4,3-d]pyrimidin-6-yl)-ethoxy]-phenylsulfanyl}-2-methyl-propionic acid ethyl ester] came in with a melting point of 85 to 87 °C.
As for `CCOC(=O)C(C)(C)Sc1ccc(OCCn2c(CC)nc3ccccc3c2=O)cc1` [Example 33, 2-{4-[2-(2-Ethyl-4-oxo-4H-quinazolin-3-yl)-ethoxy]-phenylsulfanyl}-2-methyl-propionic acid ethyl ester], the melting point is 120 to 122 °C.
The compound `CCCc1nn(CC)c2c(=O)n(CCOc3ccc(SC(C)(CC)C(=O)O)cc3)c(C)nc12` (stereo not shown) [Example 54, 2-{4-[2-(1-Ethyl-5-methyl-7-oxo-3-propyl-1,7-dihydro-pyrazolo[4,3-d]pyrimidin-6-yl)-ethoxy]-phenylsulfanyl}-2-methyl-butyric acid] showed a melting point of 155 to 157 °C.
In turn, `CCCc1nn(C)c2c(=O)n(CCOc3ccc(OC(C)(C)C(=O)O)cc3)c(CC)nc12` [Example 70, 2-{4-[2-(5-Ethyl-1-methyl-7-oxo-3-propyl-1,7-dihydro-pyrazolo[4,3-d]pyrimidin-6-yl)-ethoxy]-phenoxy}-2-methyl-propionic acid] had a melting point of 108 to 110 °C.
Regarding `CCCc1nn(C)c2c(=O)n(CCCOc3ccc(SC(C)(C)C(=O)OCC)cc3)c(C)nc12` [Example 35, 2-{4-[3-(1,5-Dimethyl-7-oxo-3-propyl-1,7-dihydro-pyrazolo[4,3-d]pyrimidin-6-yl)-propoxy]-phenylsulfanyl}-2-methyl-propionic acid ethyl ester], the melting point was 52 to 54 °C.
The compound `Cc1nc2ccccc2c(=O)n1CCNc1ccc(SC(C)(C)C(=O)O)cc1` [Example 2, 2-Methyl-2-{4-[2-(2-methyl-4-oxo-4H-quinazolin-3-yl)-ethylamino]-phenylsulfanyl}-propionic acid] yielded a melting point of 226 to 228 °C.
Regarding `CCC(C)(Sc1ccc(OCCCn2c(C)nc3ccccc3c2=O)cc1)C(=O)O` (stereo not shown) [Example 56, 2-Methyl-2-{4-[3-(2-methyl-4-oxo-4H-quinazolin-3-yl)-propoxy]-phenylsulfanyl}-butyric acid], the melting point was in the range of 130 to 132 °C.
Compound `CCCc1nn(C)c2c(=O)n(CCCOc3ccc(SC(C)(C)C(=O)OCC)cc3)c(CC)nc12` [Example 39, 2-{4-[3-(5-Ethyl-1-methyl-7-oxo-3-propyl-1,7-dihydro-pyrazolo[4,3-d]pyrimidin-6-yl)-propoxy]-phenylsulfanyl}-2-methyl-propionic acid ethyl ester] came in with a melting point of 52 to 54 °C.
As for `CCOC(=O)C(C)(CC)Sc1ccc(OCCCn2c(C)nc3ccccc3c2=O)cc1` (stereo not shown) [Example 55, 2-Methyl-2-{4-[3-(2-methyl-4-oxo-4H-quinazolin-3-yl)-propoxy]-phenylsulfanyl}-butyric acid ethyl ester], the figure is 164 to 166 °C; as for `CCCc1nn(C)c2c(=O)n(CCOc3ccc(OC4(C(=O)O)CCC4)cc3)c(C)nc12` [Example 91, 1-{4-[2-(1,5-Dimethyl-7-oxo-3-propyl-1,7-dihydro-pyrazolo[4,3-d]pyrimidin-6-yl)-ethoxy]-phenoxy}-cyclobutanecarboxylic acid], 188 to 190 °C; as for `CCCc1nn(C)c2c(=O)n(CCNc3ccc(SC(C)(C)C(=O)O)cc3)c(CC)nc12` [Example 42, 2-{4-[2-(5-Ethyl-1-methyl-7-oxo-3-propyl-1,7-dihydro-pyrazolo[4,3-d]pyrimidin-6-yl)-ethylamino]-phenylsulfanyl}-2-methyl-propionic acid], 187 to 189 °C.
With `CCc1nc2ccccc2c(=O)n1CCCCNc1ccc(SC(C)(C)C(=O)O)cc1` [Example 16, 2-{4-[4-(2-Ethyl-4-oxo-4H-quinazolin-3-yl)-butylamino]-phenylsulfanyl}-2-methyl-propionic acid], the melting point fell in the range of 58 to 62 °C.
The result for `CCc1nc2ccccc2c(=O)n1CCOc1ccc(SC(C)(C)C(=O)O)cc1` [Example 34, 2-{4-[2-(2-Ethyl-4-oxo-4H-quinazolin-3-yl)-ethoxy]-phenylsulfanyl}-2-methyl-propionic acid] reads 148 to 150 °C; that for `Cc1nc2ccccc2c(=O)n1CCCOc1ccc(SC(C)(C)C(=O)O)cc1` [Example 26, 2-Methyl-2-{4-[3-(2-methyl-4-oxo-4H-quinazolin-3-yl)-propoxy]-phenylsulfanyl}-propionic acid], 144 to 146 °C; that for `CCCc1nn(CC)c2c(=O)n(CCNc3ccc(SC(C)(C)C(=O)O)cc3)c(CC)nc12` [Example 48, 2-{4-[2-(1,5-Diethyl-7-oxo-3-propyl-1,7-dihydro-pyrazolo[4,3-d]pyrimidin-6-yl)-ethylamino]-phenylsulfanyl}-2-methyl-propionic acid], 143 to 145 °C.
The result for `CCCc1nn(CC)c2c(=O)n(CCOc3ccc(SC(C)(C)C(=O)O)cc3)c(C)nc12` [Example 52, 2-{4-[2-(1-Ethyl-5-methyl-7-oxo-3-propyl-1,7-dihydro-pyrazolo[4,3-d]pyrimidin-6-yl)-ethoxy]-phenylsulfanyl}-2-methyl-propionic acid] reads 178 to 180 °C; that for `CCCc1nc2ccccc2c(=O)n1CCNc1ccc(SC(C)(C)C(=O)O)cc1` [Example 6, 2-Methyl-2-{4-[2-(4-oxo-2-propyl-4H-quinazolin-3-yl)-ethylamino]-phenylsulfanyl}-propionic acid], 162 to 164 °C; that for `CCCc1nn(C)c2c(=O)n(CCOc3ccc(OC(C)(C)C(=O)OCC)cc3)c(CC)nc12` [Example 69, 2-{4-[2-(5-Ethyl-1-methyl-7-oxo-3-propyl-1,7-dihydro-pyrazolo[4,3-d]pyrimidin-6-yl)-ethoxy]-phenoxy}-2-methyl-propionic acid ethyl ester], 66 to 68 °C.
`Cc1nc2ccccc2c(=O)n1CCCNc1ccc(SC(C)(C)C(=O)O)cc1` [Example 8, 2-Methyl-2-{4-[3-(2-methyl-4-oxo-4H-quinazolin-3-yl)-propylamino]-phenylsulfanyl}-propionic acid] yielded a melting point of 162 to 164 °C.
Consider `CCCc1nn(CC)c2c(=O)n(CCNc3ccc(SC(C)(C)C(=O)OCC)cc3)c(CC)nc12` [Example 47, 2-{4-[2-(1,5-Diethyl-7-oxo-3-propyl-1,7-dihydro-pyrazolo[4,3-d]pyrimidin-6-yl)-ethylamino]-phenylsulfanyl}-2-methyl-propionic acid ethyl ester], for which the melting point was 85 to 87 °C.
The result for `CCCc1nn(C)c2c(=O)n(CCOc3ccc(OC(C)(C)C(=O)OCC)cc3)c(C)nc12` [Example 59, 2-{4-[2-(1,5-Dimethyl-7-oxo-3-propyl-1,7-dihydro-pyrazolo[4,3-d]pyrimidin-6-yl)-ethoxy]-phenoxy}-2-methyl-propionic acid ethyl ester] reads 98 to 100 °C.
In turn, `CCCc1nn(C)c2c(=O)n(CCNc3ccc(OC(C)(C)C(=O)O)cc3)c(CC)nc12` [Example 76, 2-{4-[2-(5-Ethyl-1-methyl-7-oxo-3-propyl-1,7-dihydro-pyrazolo[4,3-d]pyrimidin-6-yl)-ethylamino]-phenoxy}-2-methyl-propionic acid] came in with a melting point of 136 to 138 °C.

A word on the melting point: it is the temperature of the solid-liquid transition.
